Tests used:
Sprague-Dawley rats = experiment: Sleep-wake EEG/EMG recording after i.c.v. administration in rats; type: in vivo; conditions: for share of first hour of recording spent in wakefulness: saline 45%
Description: Rats were implanted with a standard set of electrodes and electroencephalograms (EEG) and electromyograms (EMG) were recorded after i.c.v. administration of NPS. Polygraphic recordings of vigilance states indicate that rats treated with 0.1 nmole and 1.0 nmole of NPS spent up to 69% and 87%, respectively, of the first hour of recording in wakefulness, compared to 45% for saline treatment (F2,21=16.80; p<0.01) (FIG. 7B).
For sleep studies, adult male Sprague-Dawley rats (250-300 g) were implanted under halothane anesthesia (1-2%) with a stainless steel cannula for i.c.v. administration and a standard set of stainless steel screw electrodes for chronic sleep recordings as reported previously (Bourgin et al., 2000). Rats were injected with NPS or vehicle (5 μl) at the beginning of the light cycle and cortical activity was recorded over 6 hours. All animal experiments had been approved by the local IACUC committee and were done in accordance with federal regulations and guidelines on animal experimentation.

C57Bl/6 mice [1] = experiment: Open field test; type: in vivo; conditions: naive mice, i.c.v.
Description: Naïve mice were tested in the open field, a paradigm of free exploratory behavior in a novel environment. […] In order to further study NPS effects on stress as it relates to anxiety, two additional tests were performed that are based on the natural aversion of rodents to open or unprotected spaces: the light-dark box and the elevated plus maze (FIG. 8B, C).
Male C57Bl/6 mice (National Cancer Institute, Bethesda, MD), age 10-14 weeks, were group-housed (4 animals per cage) under controlled conditions (temperature 21±2° C.; relative humidity 50-60%; 12-hour light-dark cycle, lights on 6:00 AM) with free access to food and water. Prior to drug injections, mice were briefly anesthetized with halothane. NPS was dissolved in phosphate-buffered saline (PBS, pH 7.4) and injected i.c.v. (total volume: 2 μl) as described before (Laursen and Belknap, 1986). […]
(§1) Locomotion was monitored in rectangular plexiglass boxes (60×40×50 cm). Horizontal activity was measured over 60 min by 18×12 infrared sensors placed 2 cm above the floor. […] Marble burying was measured in mice placed individually in polypropylene cages (30×18×12 cm) containing 18 glass marbles (1.5 cm diameter) evenly spaced on 5 cm deep rodent bedding (bed-o'cob, The Andersons Inc., Maumee, Ohio) (Njung'e and Handley, 1991). […] Cages were covered with a metal grid and the number of marbles covered at least two-thirds was counted after 30 min.

C57Bl/6 mice [2] = experiment: Elevated plus maze; type: in vivo
Description: Male C57Bl/6 mice (National Cancer Institute, Bethesda, MD), age 10-14 weeks, were group-housed (4 animals per cage) under controlled conditions (temperature 21±2° C.; relative humidity 50-60%; 12-hour light-dark cycle, lights on 6:00 AM) with free access to food and water. Prior to drug injections, mice were briefly anesthetized with halothane. NPS was dissolved in phosphate-buffered saline (PBS, pH 7.4) and injected i.c.v. (total volume: 2 μl) as described before (Laursen and Belknap, 1986). Mice were allowed to recover for 5 min and then placed in the observation apparatus.
Locomotion was monitored in rectangular plexiglass boxes (60×40×50 cm). Horizontal activity was measured over 60 min by 18×12 infrared sensors placed 2 cm above the floor. A second row of sensors at 8 cm above the floor was used to record rearing events. The imaginary central zone was defined as a 30×20 cm rectangle in the middle of each observation area. Data were collected using MatLab (Mathworks, Natick, Mass.). Experimental procedures for open field, elevated plus-maze and light-dark box were described previously (Köster et al., 1999). Marble burying was measured in mice placed individually in polypropylene cages (30×18×12 cm) containing 18 glass marbles (1.5 cm diameter) evenly spaced on 5 cm deep rodent bedding (bed-o'cob, The Andersons Inc., Maumee, Ohio) (Njung'e and Handley, 1991). No food or water was present during the observation period. Cages were covered with a metal grid and the number of marbles covered at least two-thirds was counted after 30 min.

C57Bl/6 mice [3] = experiment: Marble-burying paradigm; type: in vivo; conditions: 30 min observation, 18 marbles per cage, i.c.v.
Text: Many anxiolytic drugs increase exploratory activity in the open field, light-dark box or elevated plus maze paradigms. However, compounds stimulating locomotion could produce false-positive effects in these tests because the enhanced exploration could be secondary to the increase in general activity. In order to validate the observed anxiolytic-like effects of NPS, we tested increasing doses of NPS in the marble-burying paradigm. Mice tend to bury objects such as glass marbles present in their environment. Anxiolytic drugs such as benzodiazepines reduce the number of marbles buried over a fixed period of time. […]
as §1

NPSR Ile^107 = biological target: T1, NPSR Ile^107 (Homo sapiens, UniProt Q6W5P4, N107I); experiment: CRE-luciferase reporter gene assay, HEK 293 cells, NPSR Ile107; type: cell-based; conditions: transiently transfected HEK cells
T1 construct: The Ile^107 isoform of NPSR was generated by PCR using synthetic oligonucleotides and the Quik Change Site-Directed Mutagenesis kit from Stratagene; expressed in transfected cells
T1 sequence (Q6W5P4 1-371 N107I): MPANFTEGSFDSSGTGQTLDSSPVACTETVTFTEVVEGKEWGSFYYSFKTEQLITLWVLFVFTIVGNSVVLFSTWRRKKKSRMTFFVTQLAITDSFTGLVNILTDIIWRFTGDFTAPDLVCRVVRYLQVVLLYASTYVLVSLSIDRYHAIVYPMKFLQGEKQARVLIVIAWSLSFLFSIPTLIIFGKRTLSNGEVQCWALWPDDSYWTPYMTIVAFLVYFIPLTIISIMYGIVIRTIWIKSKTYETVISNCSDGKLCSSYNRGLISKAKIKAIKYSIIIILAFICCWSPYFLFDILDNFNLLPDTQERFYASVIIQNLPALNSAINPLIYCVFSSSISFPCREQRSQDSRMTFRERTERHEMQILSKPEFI
Text: HEK 293 cells were stably transfected with a reporter gene containing 6 copies of a cAMP response element (CRE; sequence […]) in front of a luciferase reporter gene (Promega) cloned into pcDNA3.1 neo. One stable clone showing robust induction of reporter gene expression after forskolin challenge was chosen for further experiments. The different NPSR isoform cDNAs (cloned into pcDNA3.1 hygro) were transfected into these cells using lipofectamine and stable clones were selected. The same cells and procedures were also used for transient transfection. For induction of reporter gene expression cells were plated in 96-well plates and incubated with agonist for 5 hours in serum-free medium, followed by aspiration of the medium and cell lysis with 25 mM Tris-phosphate, pH 7.8, 2 mM dithiothreitol, 2 mM 1,2-diaminocyclohexane-N,N,N′,N′,-tetraacetic acid, 10% glycerol, 1% Triton X-100. After one freeze-thaw cycle aliquots of supernatant were transferred to white clear-bottom 96-well plates (Greiner) and luciferase content was quantified by bioluminescence (Luc-Screen, Applied Biosystems). Plates were counted in a scintillation counter using bioluminescence settings (MicroBeta, Wallac-Perkin Elmer).

[4] = system: Colo205 human colon cancer cells; experiment: Cell proliferation, [3H]-thymidine incorporation in Colo205 cells; type: cell-based
Description: (§2) Cells were seeded in 24-well plates and grown overnight to 60-70% confluency. Following 24 h serum-starvation, 2 μCi of methyl-[^3H] thymidine was added together with increasing concentrations of NPS. 500 nM PGE2 served as a positive control. After 3 h incubation cells were washed 3 times with PBS and then lysed with 0.5 N NaOH. The lysate was neutralized with 0.5 N HCl and aliquots were counted in a liquid scintillation counter for incorporated radioactivity.

[5] = system: human colon cancer cell line DLD-1; experiment: Cell proliferation, [3H]-thymidine incorporation in DLD-1 cells (negative control line); type: cell-based; conditions: no NPSR transcripts
Description: as §2

[6] = i.c.v., rats, compared with saline

For “NPS: neuropeptide S, endogenous NPSR ligand; species of the peptide not stated at the place of the result (SFRNGVGTGMKKTSFQRAKS)”, the “share of first hour of recording spent in wakefulness” value (Sprague-Dawley rats; 0.1 nmole i.c.v., rats) was “up to 69%”, the “share of first hour of recording spent in wakefulness” value (Sprague-Dawley rats; 1.0 nmole i.c.v., rats) was at most 87% and the “rebound in amount of non-REM sleep, increase vs. saline” value (Sprague-Dawley rats; fourth hour post injection, rats) was 48%. The “mean duration of wakefulness episodes” value (Sprague-Dawley rats; i.c.v., rats, compared to saline group) was “significant increase”, the “amount of REM sleep” value (Sprague-Dawley rats; [6]) was “significantly reduced” and the “amount of slow wave sleep stage 1 (SWS1)” value (Sprague-Dawley rats; [6]) was “significantly reduced”. For the same substance, the “amount of slow wave sleep stage 2 (SWS2)” value (Sprague-Dawley rats; [6]) was “significantly reduced”, the “rebound in amount of non-REM sleep, increase vs. saline” value (Sprague-Dawley rats; second hour post injection, rats) was 20% and the “duration of arousal effect” value (Sprague-Dawley rats; single i.c.v. administration) was “within the first hour post injection”. For the same substance, the “number of entries in the central zone” value (C57Bl/6 mice [1]; first 10 minutes) was “significantly increased”, the “ambulations in the outer zones of the open field” value (C57Bl/6 mice [1]; same doses) was “increased” and the “number of transitions from closed to open arms” value (C57Bl/6 mice [2]; 0.1 and 1 nmole i.c.v.) was “higher number of transitions”. For the same substance, the “time on the open arms” value (C57Bl/6 mice [2]; 0.1 and 1 nmole i.c.v.) was “significantly more time”, the “closed-closed transitions (general activity)” value (C57Bl/6 mice [2]; all doses i.c.v.) was “did not reach statistical significance” and the “number of marbles buried” value (C57Bl/6 mice [3]) was “dose-dependently reduced”. For the same substance, the “maximum of reporter gene expression relative to NPSR WT or NPSR C-alt” value (NPSR Ile^107) was “about 2 fold”, the “doses producing maximal thymidine incorporation” value [4] was 0.1 to 10 nM and the thymidine incorporation ([4]; 3 h incubation) was “dose-dependent stimulation”. The thymidine incorporation [5] was “no NPS-dependent thymidine incorporation”.

— US9012407B2, “Therapies which act on neuropeptide S receptors” (The Regents of the University of California, priority 2004, dated 2015)
